The target in test [1] is T1, His tagged PTPN2 (TC45) protein (Homo sapiens, UniProt P17706).
T1 construct: made in house
T1 sequence (P17706 with tags, fused parts or gaps isoform P17706-2): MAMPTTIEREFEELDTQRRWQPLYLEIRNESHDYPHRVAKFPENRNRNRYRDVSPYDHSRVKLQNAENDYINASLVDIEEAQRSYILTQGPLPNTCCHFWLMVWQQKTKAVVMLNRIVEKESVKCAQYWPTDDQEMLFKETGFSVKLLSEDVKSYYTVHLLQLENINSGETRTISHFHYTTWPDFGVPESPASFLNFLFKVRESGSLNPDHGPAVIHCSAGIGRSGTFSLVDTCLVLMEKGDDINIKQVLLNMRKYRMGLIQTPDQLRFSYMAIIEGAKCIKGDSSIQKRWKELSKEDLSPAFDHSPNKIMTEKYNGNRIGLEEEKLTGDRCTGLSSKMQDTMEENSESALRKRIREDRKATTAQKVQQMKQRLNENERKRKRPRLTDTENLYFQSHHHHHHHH
Briefly: Mobility shift assay used to determine potency of PTPN2 inhibitors. The conditions noted are these: enzyme 0.5 nM, substrate 2 μM; read-out: PTPN2 MSA IC50. In kind it is biochemical. Summed up:
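Enzyme (0.5 nM) preincubated with compound (12-point, 1:3 dilution) 10 min at room temperature in 50 mM HEPES pH 7.5, 1 mM EGTA, 10 mM EDTA, 0.01% Tween 20, 2 mM DTT; OG488-labelled phospho-insulin-receptor peptide substrate (2 μM) added for 10 min, then quenched. Microfluidic mobility shift (ex 488/em 530 nm) gave % conversion; IC50 from % inhibition.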

Test [2] deals with T2, His tagged full-length PTPN1 protein (Homo sapiens, UniProt P18031).
T2 construct: made in house
T2 sequence (P18031 with tags, fused parts or gaps): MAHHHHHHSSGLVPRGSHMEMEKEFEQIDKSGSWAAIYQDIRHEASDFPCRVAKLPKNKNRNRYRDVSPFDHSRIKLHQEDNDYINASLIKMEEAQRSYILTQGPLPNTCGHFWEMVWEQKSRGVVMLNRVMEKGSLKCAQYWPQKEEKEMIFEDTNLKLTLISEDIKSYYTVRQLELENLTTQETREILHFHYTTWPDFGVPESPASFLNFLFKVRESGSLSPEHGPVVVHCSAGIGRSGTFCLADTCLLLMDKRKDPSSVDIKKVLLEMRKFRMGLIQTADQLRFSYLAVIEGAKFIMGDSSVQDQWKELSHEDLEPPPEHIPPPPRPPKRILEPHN
Briefly: Mobility shift assay (MSA) used to determine potency of PTPN1 inhibitors. As to conditions: enzyme 0.5 nM, substrate 2 μM. The test is classed as biochemical. The essentials:
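Full-length His-tagged human PTPN1 (0.5 nM) was preincubated 10 min at room temperature with compound (12-point, 1:3 dilution) in HEPES pH 7.5 buffer with EGTA, EDTA, Tween 20 and DTT. A 2 μM fluorescent phospho-insulin receptor peptide was then added for 10 min before quench. Mobility-shift % conversion gave % inhibition and IC50.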

Test [3] has as its system B16F10 mouse melanoma cells. Briefly: B16F10 IFNγ-induced cellular growth inhibition assay. The conditions noted are these: B16-F10, with 0.5 ng/mL IFNγ, read-out: B16F10 GI IC50. In kind it is cell-based. The essentials:
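B16F10 cells grown in DMEM+10% FBS, with or without 0.5 ng/mL final mouse IFNγ, and dosed in triplicate at 100 μM to 0.001 μM final (0.1% DMSO). Confluence imaged every 6 h for 5 days; percent growth inhibition versus DMSO/with-IFNγ control taken once DMSO/no-IFNγ wells exceeded 95% confluence, giving IC50.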

The source of these data is patent US10851073B2, “Protein tyrosine phosphatase inhibitors and methods of use thereof” (Calico Life Sciences LLC, priority 2019, dated 2020).

For `O=C1CN(c2c(O)cc3c(c2F)CN(CCC2CC4CCC2O4)CC3)S(=O)(=O)N1` (stereo not drawn) [Compound 225, 5-{8-fluoro-6-hydroxy-2-[2-(7-oxabicyclo[2.2.1]heptan-2-yl)ethyl]-1,2,3,4-tetrahydroisoquinolin-7-yl}-1λ^6,2,5-thiadiazolidine-1,1,3-trione], the IC50 (in general, the concentration that inhibits the measured activity by half) in test [1] is 1 to 10 nM; in test [2] it was 10 to 100 nM; in test [3] it was 1000 to 10000 nM.

For the compound `CCC(C)CCN[C@@H]1CCc2cc(O)c(N3CC(=O)NS3(=O)=O)c(F)c2C1` (stereo partly drawn) [Compound 203, 5-{(7R)-1-fluoro-3-hydroxy-7-[(3-methylpentyl)amino]-5,6,7,8-tetrahydronaphthalen-2-yl}-1λ^6,2,5-thiadiazolidine-1,1,3-trione], the half-maximal inhibitory concentration (IC50) in test [1] was less than 1 nM; in test [2], 1 to 10 nM; in test [3] it was less than 1000 nM.

On to `O=C1CN(c2c(O)cc3c(c2F)CC(NCCO)CC3)S(=O)(=O)N1` (stereo not drawn) [Compound 180, 5-{1-fluoro-3-hydroxy-7-[(2-hydroxyethyl)amino]-5,6,7,8-tetrahydronaphthalen-2-yl}-1λ^6,2,5-thiadiazolidine-1,1,3-trione], for which the IC50 in test [1] is 10 to 100 nM; in test [2], more than 100 nM; in test [3], 1000 to 10000 nM.

Take `O=C1CN(c2c(O)cc3c(c2F)CC(NCCC(C(F)(F)F)C(F)(F)F)CC3)S(=O)(=O)N1` (stereo not drawn) [Compound 131, 5-(1-fluoro-3-hydroxy-7-{[4,4,4-trifluoro-3-(trifluoromethyl)butyl]amino}-5,6,7,8-tetrahydronaphthalen-2-yl)-1λ^6,2,5-thiadiazolidine-1,1,3-trione]: the IC50 was 1 to 10 nM in test [1], 1 to 10 nM in test [2] and less than 1000 nM in test [3].

`CC(C)C(O)CNC1CCc2cc(O)c(N3CC(=O)NS3(=O)=O)c(F)c2C1` (stereo not drawn) [Compound 187, 5-{1-fluoro-3-hydroxy-7-[(2-hydroxy-3-methylbutyl)amino]-5,6,7,8-tetrahydronaphthalen-2-yl}-1λ^6,2,5-thiadiazolidine-1,1,3-trione]: the IC50 in test [1] is 1 to 10 nM; in test [2], 1 to 10 nM; in test [3], less than 1000 nM.

On to `O=C1CN(c2c(O)cc3c(c2F)CC(NCCC2CCCC2)CC3)S(=O)(=O)N1` (stereo not drawn) [Compound 178, 5-{7-[(2-cyclopentylethyl)amino]-1-fluoro-3-hydroxy-5,6,7,8-tetrahydronaphthalen-2-yl}-1λ^6,2,5-thiadiazolidine-1,1,3-trione], for which the IC50 in test [1] was less than 1 nM; in test [2], 1 to 10 nM; in test [3], less than 1000 nM.

With `CC(C)(CO)CCN[C@@H]1CCc2cc(O)c(N3CC(=O)NS3(=O)=O)c(F)c2C1` (single isomer, unassigned) [Compound 308], the IC50 in test [1] was 1 to 10 nM; in test [2], 1 to 10 nM; in test [3], less than 1000 nM.

On to `CC(C)(O)CCNC1CCc2cc(O)c(N3CC(=O)NS3(=O)=O)c(F)c2C1` (stereo not drawn) [Compound 127, 5-{1-fluoro-3-hydroxy-7-[(3-hydroxy-3-methylbutyl)amino]-5,6,7,8-tetrahydronaphthalen-2-yl}-1λ^6,2,5-thiadiazolidine-1,1,3-trione], for which the IC50 in test [1] was 1 to 10 nM; in test [2], 1 to 10 nM; in test [3], less than 1000 nM.

On to `O=C1CN(c2c(O)cc3c(c2F)CC(NCCCC(F)(F)F)CC3)S(=O)(=O)N1` (stereo not drawn) [Compound 120, 5-{1-fluoro-3-hydroxy-7-[(4,4,4-trifluorobutyl)amino]-5,6,7,8-tetrahydronaphthalen-2-yl}-1λ^6,2,5-thiadiazolidine-1,1,3-trione], for which the values for the IC50 in test [1], in test [2] and in test [3] were 1 to 10 nM, 1 to 10 nM and less than 1000 nM, respectively.

Consider `O=C1CN(c2c(O)cc3c(c2F)CC(OCCCC(F)(F)F)CC3)S(=O)(=O)N1` (stereo not drawn) [Compound 142, 5-[1-fluoro-3-hydroxy-7-(4,4,4-trifluorobutoxy)-5,6,7,8-tetrahydronaphthalen-2-yl]-1λ^6,2,5-thiadiazolidine-1,1,3-trione], for which the IC50 in test [1] fell in the range of 1 to 10 nM; in test [2], 10 to 100 nM; in test [3], 10000 to 100000 nM.

Consider `CCCC1(N)CCc2cc(O)c(N3CC(=O)NS3(=O)=O)c(F)c2C1` (stereo not drawn) [Compound 255, 5-(7-amino-1-fluoro-3-hydroxy-7-propyl-5,6,7,8-tetrahydronaphthalen-2-yl)-1λ^6,2,5-thiadiazolidine-1,1,3-trione], for which the IC50 in test [1] is more than 100 nM; in test [2], 10 to 100 nM; in test [3], 1000 to 10000 nM.

As for `CC(C)CCNC1CCc2cc(O)c(N3CC(=O)NS3(=O)=O)c(F)c2C1` (stereo not drawn) [Compound 102, 5-{1-fluoro-3-hydroxy-7-[(3-methylbutyl)amino]-5,6,7,8-tetrahydronaphthalen-2-yl}-1λ^6,2,5-thiadiazolidine-1,1,3-trione], the figures for the IC50 in test [1], in test [2] and in test [3] were less than 1 nM, 1 to 10 nM and less than 1000 nM, respectively.

As for `O=C1CN(c2c(O)cc3c(c2F)C[C@@H](NCCC2CC2)CC3)S(=O)(=O)N1` (single isomer, unassigned) [Compound 134], the figures for the IC50 in test [1], in test [2] and in test [3] were 10 to 100 nM, 10 to 100 nM and 1000 to 10000 nM, respectively.

Consider `CCCC1(NNC(=O)c2ccccc2)CCc2cc(O)c(N3CC(=O)NS3(=O)=O)c(F)c2C1` (stereo not drawn) [Compound 241, N′-[8-fluoro-6-hydroxy-2-propyl-7-(1,1,4-trioxo-1λ^6,2,5-thiadiazolidin-2-yl)-1,2,3,4-tetrahydronaphthalen-2-yl]benzohydrazide], for which the results for the IC50 in test [1], in test [2] and in test [3] were 10 to 100 nM, 10 to 100 nM and 10000 to 100000 nM, respectively.

On to `CC(C)CCCNC1CCc2cc(O)c(N3CC(=O)NS3(=O)=O)c(F)c2C1` (stereo not drawn) [Compound 129, 5-{1-fluoro-3-hydroxy-7-[(4-methylpentyl)amino]-5,6,7,8-tetrahydronaphthalen-2-yl}-1λ^6,2,5-thiadiazolidine-1,1,3-trione], for which the values for the IC50 in test [1], in test [2] and in test [3] were 1 to 10 nM, 1 to 10 nM and less than 1000 nM, respectively.

Turning to `O=C1CN(c2c(O)cc3c(c2F)CC(NCCC2CCC2)CC3)S(=O)(=O)N1` (stereo not drawn) [Compound 185, 5-{7-[(2-cyclobutylethyl)amino]-1-fluoro-3-hydroxy-5,6,7,8-tetrahydronaphthalen-2-yl}-1λ^6,2,5-thiadiazolidine-1,1,3-trione], the IC50 is 1 to 10 nM in test [1], 1 to 10 nM in test [2] and less than 1000 nM in test [3].

Take `CC(C)CCNC[C@H]1Cc2cc(O)c(N3CC(=O)NS3(=O)=O)c(F)c2C1` (single isomer, unassigned) [Compound 292]: the IC50 is 10 to 100 nM in test [1], 10 to 100 nM in test [2] and 1000 to 10000 nM in test [3].

For `O=C1CN(c2c(O)cc3c(c2F)CC(NCCC(O)C(F)(F)F)CC3)S(=O)(=O)N1` (stereo not drawn) [Compound 151, 5-{1-fluoro-3-hydroxy-7-[(4,4,4-trifluoro-3-hydroxybutyl)amino]-5,6,7,8-tetrahydronaphthalen-2-yl}-1λ^6,2,5-thiadiazolidine-1,1,3-trione], the IC50 in test [1] fell in the range of 1 to 10 nM; in test [2] it was 10 to 100 nM; in test [3], 1000 to 10000 nM.

Take `O=C1CN(c2c(O)cc3c(c2F)CC(NCCC(F)(F)F)CC3)S(=O)(=O)N1` (stereo not drawn) [Compound 116, 5-{1-fluoro-3-hydroxy-7-[(3,3,3-trifluoropropyl)amino]-5,6,7,8-tetrahydronaphthalen-2-yl}-1λ^6,2,5-thiadiazolidine-1,1,3-trione]: the IC50 in test [1] was 10 to 100 nM; in test [2], 10 to 100 nM; in test [3] it was 1000 to 10000 nM.

On to `CC(C)CCNCC1Cc2cc(O)c(N3CC(=O)NS3(=O)=O)c(F)c2C1` (stereo not drawn) [Compound 268, 5-(4-fluoro-6-hydroxy-2-{[(3-methylbutyl)amino]methyl}-2,3-dihydro-1H-inden-5-yl)-1λ^6,2,5-thiadiazolidine-1,1,3-trione], for which the figures for the IC50 in test [1], in test [2] and in test [3] were 10 to 100 nM, 10 to 100 nM and 1000 to 10000 nM, respectively.
